According to publication PMC9403976, “Elucidating the path to Plasmodium prolyl-tRNA synthetase inhibitors that overcome halofuginone resistance” (Nature Communications, 2022):
“And” between values parts separate entries of the source, which are not always exact repeats. Equal entries are not always repeated. Where two headings read alike, the source gives them in different places.

What was measured:
P. falciparum Dd2-2D4 = assay: P. falciparum asexual blood stage (ABS) growth assay, SYBR Green, 72 h, wild-type parasites; type: cell-based, Plasmodium falciparum; conditions: for ABS growth dose-response, normalized signal (Replicates 1-3): Dd2-2D4
[1] = test system: halofuginone-induced P. falciparum (elevated proline homeostasis); assay: P. falciparum ABS growth assay, SYBR Green, 72 h, halofuginone-induced parasites; type: cell-based, Plasmodium falciparum; conditions: Halofuginone-Induced (HFG-Induced)
Outline: (§1)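 Dd2-derived P. falciparum lines (HFGR-I, halofuginone-induced) at 1% parasitemia and 1% hematocrit in RPMI + 0.5% Albumax were exposed to compounds in triplicate dose-response for 72 h. Growth was read as SYBR Green 1 fluorescence, with 10 μM dihydroartemisinin as kill control and compound-free wells as growth control.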

[2] = test system: HFGR-I P. falciparum (elevated proline homeostasis and PfcProRS^L482H); assay: P. falciparum ABS growth assay, SYBR Green, 72 h, HFGR-I parasites; type: cell-based, Plasmodium falciparum; conditions: HFGR-I
Outline: as §1

HsProRS = HsProRS (Homo sapiens, UniProt P07814); assay: TR-FRET ligand displacement assay with tracer MAT379 (CoraFluor-1-Halo and anti-His6 antibody formats); type: binding; set-up: made in house; host or cells: E. coli SoluBL-21; conditions: for Kd: 250 nM MAT379; for TR-FRET dose-response, normalized signal (SI Fig 11): individual replicates
Chain of HsProRS (P07814 996-1512): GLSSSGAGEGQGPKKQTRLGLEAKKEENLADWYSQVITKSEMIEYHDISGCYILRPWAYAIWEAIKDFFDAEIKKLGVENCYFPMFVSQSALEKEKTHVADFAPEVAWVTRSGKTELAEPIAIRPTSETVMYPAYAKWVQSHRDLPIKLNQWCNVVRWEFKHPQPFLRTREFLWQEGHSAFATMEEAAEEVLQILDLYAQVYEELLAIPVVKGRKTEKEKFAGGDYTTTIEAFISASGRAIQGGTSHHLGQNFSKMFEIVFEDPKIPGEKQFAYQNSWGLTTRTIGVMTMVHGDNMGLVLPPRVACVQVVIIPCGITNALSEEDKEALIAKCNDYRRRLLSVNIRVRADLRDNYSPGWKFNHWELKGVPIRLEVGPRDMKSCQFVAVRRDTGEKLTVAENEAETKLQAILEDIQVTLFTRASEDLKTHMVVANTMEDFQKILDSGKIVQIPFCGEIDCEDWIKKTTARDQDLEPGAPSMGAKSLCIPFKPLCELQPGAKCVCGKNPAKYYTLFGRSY

PfcProRS = target: T1, PfcProRS (Plasmodium falciparum, UniProt Q8I5R7); type: binding; conditions: for dose-response signal (normalized), SI Fig 8: single replicates
T1 construct: made in house; host or cells: E. coli SoluBL-21
T1 sequence (Q8I5R7 249-746): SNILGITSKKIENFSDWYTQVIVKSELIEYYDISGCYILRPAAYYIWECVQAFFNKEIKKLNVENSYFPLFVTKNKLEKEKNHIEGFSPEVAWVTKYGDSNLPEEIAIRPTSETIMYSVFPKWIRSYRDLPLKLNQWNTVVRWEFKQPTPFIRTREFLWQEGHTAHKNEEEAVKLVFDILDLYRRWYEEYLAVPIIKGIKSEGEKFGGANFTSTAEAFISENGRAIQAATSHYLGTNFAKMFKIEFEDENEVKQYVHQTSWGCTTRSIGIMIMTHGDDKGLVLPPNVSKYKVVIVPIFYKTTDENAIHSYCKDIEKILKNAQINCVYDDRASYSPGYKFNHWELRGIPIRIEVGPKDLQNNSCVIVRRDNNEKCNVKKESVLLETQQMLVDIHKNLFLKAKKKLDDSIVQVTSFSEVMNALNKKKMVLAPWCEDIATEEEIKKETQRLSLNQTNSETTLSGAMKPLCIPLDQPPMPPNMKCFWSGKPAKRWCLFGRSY

## CC(C)(C)OC(=O)N[C@H]1CC[C@@H](C(=O)Nc2nccnc2C(=O)NC2Cc3ccccc3C2)CC1 [compound 6]
P. falciparum Dd2-2D4; Log[inhibitor] (M) -4.699
  ABS growth dose-response, normalized signal (Replicates 1-3): 0
P. falciparum Dd2-2D4; Log[inhibitor] (M) -5.301
  ABS growth dose-response, normalized signal (Replicates 1-3): 1
P. falciparum Dd2-2D4; Log[inhibitor] (M) -5.903
  ABS growth dose-response, normalized signal (Replicates 1-3): 4
P. falciparum Dd2-2D4; Plasmodium falciparum, DD2, SI Fig 16b, values on -log scale, read-out: ABS - Dd2-2D4 (converted)
  EC50: 0.508 µM
[1]; Log[inhibitor] (M) -5.000
  ABS growth dose-response, normalized signal (Replicates 1-3): 38 and 37 and 33
[1]; Log[inhibitor] (M) -5.301
  ABS growth dose-response, normalized signal (Replicates 1-3): 80 and 73 and 79
[1]; Log[inhibitor] (M) -5.602
  ABS growth dose-response, normalized signal (Replicates 1-3): 89 and 91 and 90
[1]; Log[inhibitor] (M) -5.903
  ABS growth dose-response, normalized signal (Replicates 1-3): 99 and 97 and 98
[1]; Log[inhibitor] (M) -6.204
  ABS growth dose-response, normalized signal (Replicates 1-3): 99 and 98 and 96
[1]; Log[inhibitor] (M) -6.505
  ABS growth dose-response, normalized signal (Replicates 1-3): 98 and 107 and 101
[1]; Log[inhibitor] (M) -6.806
  ABS growth dose-response, normalized signal (Replicates 1-3): 93 and 91 and 99
[1]; Log[inhibitor] (M) -7.107
  ABS growth dose-response, normalized signal (Replicates 1-3): 91 and 93 and 96
[1]; Log[inhibitor] (M) -7.408
  ABS growth dose-response, normalized signal (Replicates 1-3): 96 and 93 and 99
[1]; Log[inhibitor] (M) -7.709
  ABS growth dose-response, normalized signal (Replicates 1-3): 100 and 98 (2×)
[1]; Log[inhibitor] (M) -8.010
  ABS growth dose-response, normalized signal (Replicates 1-3): 99 (2×) and 97
[1]; Log[inhibitor] (M) -8.311
  ABS growth dose-response, normalized signal (Replicates 1-3): 98 and 97 and 96
[2]; Log[inhibitor] (M) -5.000
  ABS growth dose-response, normalized signal (Replicates 1-3): 30 and 31 and 35
[2]; Log[inhibitor] (M) -5.301
  ABS growth dose-response, normalized signal (Replicates 1-3): 64 and 68 and 70
[2]; Log[inhibitor] (M) -5.602
  ABS growth dose-response, normalized signal (Replicates 1-3): 83 (2×) and 82
[2]; Log[inhibitor] (M) -5.903
  ABS growth dose-response, normalized signal (Replicates 1-3): 92 and 97 and 94
[2]; Log[inhibitor] (M) -6.204
  ABS growth dose-response, normalized signal (Replicates 1-3): 105 and 106 and 108
[2]; Log[inhibitor] (M) -6.505
  ABS growth dose-response, normalized signal (Replicates 1-3): 108 (2×) and 110
[2]; Log[inhibitor] (M) -6.806
  ABS growth dose-response, normalized signal (Replicates 1-3): 85 and 90 (2×)
[2]; Log[inhibitor] (M) -7.107
  ABS growth dose-response, normalized signal (Replicates 1-3): 91 and 92 and 97
[2]; Log[inhibitor] (M) -7.408
  ABS growth dose-response, normalized signal (Replicates 1-3): 92 and 97 and 99
[2]; Log[inhibitor] (M) -7.709
  ABS growth dose-response, normalized signal (Replicates 1-3): 95 and 99 (2×)
[2]; Log[inhibitor] (M) -8.010
  ABS growth dose-response, normalized signal (Replicates 1-3): 107 and 102 and 97
[2]; Log[inhibitor] (M) -8.311
  ABS growth dose-response, normalized signal (Replicates 1-3): 104 and 108 and 101
HsProRS; HsProRS (KD [nM]) + proline, 100 μM proline
  Kd: 82.7 nM
HsProRS; HsProRS (KD [nM]) −, absence of substrates
  Kd: 56.8 nM
HsProRS; Log[inhibitor] (M) -5.000
  normalized TR-FRET ligand displacement signal, dose-response replicates (SI Fig 6): -9.02E-03 and -3.85E-02 and -4.81E-02
  TR-FRET dose-response, normalized signal (SI Fig 11): -2.98E-03 and 2.00E-02 and -3.48E-02
HsProRS; Log[inhibitor] (M) -5.301
  normalized TR-FRET ligand displacement signal, dose-response replicates (SI Fig 6): 1.39E-03 and -1.19E-02 and 6.50E-02
  TR-FRET dose-response, normalized signal (SI Fig 11): -9.84E-03 and -1.64E-02 and -3.17E-02
HsProRS; Log[inhibitor] (M) -5.601
  normalized TR-FRET ligand displacement signal, dose-response replicates (SI Fig 6): 3.06E-03 and 6.60E-02 and -6.88E-02
  TR-FRET dose-response, normalized signal (SI Fig 11): 1.87E-02 and 1.41E-03 and 1.94E-02
HsProRS; Log[inhibitor] (M) -5.904
  normalized TR-FRET ligand displacement signal, dose-response replicates (SI Fig 6): 1.31E-01 and 8.92E-02 and 1.65E-02
  TR-FRET dose-response, normalized signal (SI Fig 11): 4.76E-02 and 6.37E-02 and 6.71E-02
HsProRS; Log[inhibitor] (M) -6.208
  normalized TR-FRET ligand displacement signal, dose-response replicates (SI Fig 6): 8.21E-02 and 1.14E-01 and 9.74E-02
  TR-FRET dose-response, normalized signal (SI Fig 11): 1.11E-01 and 9.52E-02 and 8.68E-02
HsProRS; Log[inhibitor] (M) -6.509
  normalized TR-FRET ligand displacement signal, dose-response replicates (SI Fig 6): 3.32E-01 and 2.13E-01 and 2.09E-01
  TR-FRET dose-response, normalized signal (SI Fig 11): 1.70E-01 and 1.88E-01 and 1.94E-01
HsProRS; Log[inhibitor] (M) -6.796
  normalized TR-FRET ligand displacement signal, dose-response replicates (SI Fig 6): 3.90E-01 and 3.58E-01 and 4.40E-01
  TR-FRET dose-response, normalized signal (SI Fig 11): 3.16E-01 and 2.94E-01 and 3.43E-01
HsProRS; Log[inhibitor] (M) -7.108
  normalized TR-FRET ligand displacement signal, dose-response replicates (SI Fig 6): 6.29E-01 and 5.81E-01 and 6.23E-01
  TR-FRET dose-response, normalized signal (SI Fig 11): 5.24E-01 and 5.07E-01 and 4.16E-01
HsProRS; Log[inhibitor] (M) -7.409
  normalized TR-FRET ligand displacement signal, dose-response replicates (SI Fig 6): 7.27E-01 and 7.69E-01 and 8.30E-01
  TR-FRET dose-response, normalized signal (SI Fig 11): 6.04E-01 and 6.96E-01 and 6.63E-01
HsProRS; Log[inhibitor] (M) -7.710
  normalized TR-FRET ligand displacement signal, dose-response replicates (SI Fig 6): 8.52E-01 and 7.93E-01 and 9.04E-01
  TR-FRET dose-response, normalized signal (SI Fig 11): 7.36E-01 and 7.44E-01 and 7.53E-01
HsProRS; Log[inhibitor] (M) -8.000
  normalized TR-FRET ligand displacement signal, dose-response replicates (SI Fig 6): 8.26E-01 and 9.38E-01 and 9.73E-01
  TR-FRET dose-response, normalized signal (SI Fig 11): 8.98E-01 and 8.12E-01 and 7.76E-01
HsProRS; Log[inhibitor] (M) -8.301
  normalized TR-FRET ligand displacement signal, dose-response replicates (SI Fig 6): 9.79E-01 and 9.47E-01 and 1.01E+00
  TR-FRET dose-response, normalized signal (SI Fig 11): 8.89E-01 and 8.40E-01 and 9.15E-01
HsProRS; Log[inhibitor] (M) -8.602
  normalized TR-FRET ligand displacement signal, dose-response replicates (SI Fig 6): 9.42E-01 and 9.96E-01 and 9.03E-01
  TR-FRET dose-response, normalized signal (SI Fig 11): 9.56E-01 and 8.65E-01 and 9.25E-01
HsProRS; Log[inhibitor] (M) -9.000
  normalized TR-FRET ligand displacement signal, dose-response replicates (SI Fig 6): 9.97E-01 and 9.50E-01 and 8.98E-01
  TR-FRET dose-response, normalized signal (SI Fig 11): 9.29E-01 and 9.09E-01 and 9.22E-01
HsProRS; Log[inhibitor] (M) -9.301
  normalized TR-FRET ligand displacement signal, dose-response replicates (SI Fig 6): 1.05E+00 and 9.90E-01 and 1.06E+00
  TR-FRET dose-response, normalized signal (SI Fig 11): 9.30E-01 and 9.49E-01 and 9.75E-01
PfcProRS; Log[inhibitor] (M) -5.000
  dose-response signal (normalized), SI Fig 8: -1.61E-02 and -5.30E-02 and -3.81E-03
PfcProRS; Log[inhibitor] (M) -5.301
  dose-response signal (normalized), SI Fig 8: -7.80E-02 and -1.87E-02 and -8.78E-02
PfcProRS; Log[inhibitor] (M) -5.601
  dose-response signal (normalized), SI Fig 8: 1.78E-02 and -1.26E-02 and 5.92E-03
PfcProRS; Log[inhibitor] (M) -5.904
  dose-response signal (normalized), SI Fig 8: 6.25E-02 and 5.05E-02 and 9.24E-02
PfcProRS; Log[inhibitor] (M) -6.208
  dose-response signal (normalized), SI Fig 8: 5.23E-02 and 1.76E-01 and 1.80E-01
PfcProRS; Log[inhibitor] (M) -6.509
  dose-response signal (normalized), SI Fig 8: 2.25E-01 and 2.68E-01 and 2.02E-01
PfcProRS; Log[inhibitor] (M) -6.796
  dose-response signal (normalized), SI Fig 8: 4.96E-01 and 4.42E-01 and 4.81E-01
PfcProRS; Log[inhibitor] (M) -7.108
  dose-response signal (normalized), SI Fig 8: 6.45E-01 and 6.22E-01 and 4.90E-01
PfcProRS; Log[inhibitor] (M) -7.409
  dose-response signal (normalized), SI Fig 8: 7.15E-01 and 8.22E-01 and 8.32E-01
PfcProRS; Log[inhibitor] (M) -7.710
  dose-response signal (normalized), SI Fig 8: 9.70E-01 and 9.04E-01 and 8.55E-01
PfcProRS; Log[inhibitor] (M) -8.000
  dose-response signal (normalized), SI Fig 8: 8.78E-01 and 9.57E-01 and 8.94E-01
PfcProRS; Log[inhibitor] (M) -8.301
  dose-response signal (normalized), SI Fig 8: 1.00E+00 and 9.97E-01 and 9.67E-01
PfcProRS; Log[inhibitor] (M) -8.602
  dose-response signal (normalized), SI Fig 8: 1.06E+00 and 9.31E-01 and 1.01E+00
PfcProRS; Log[inhibitor] (M) -9.000
  dose-response signal (normalized), SI Fig 8: 9.58E-01 and 9.81E-01 and 9.50E-01
PfcProRS; Log[inhibitor] (M) -9.301
  dose-response signal (normalized), SI Fig 8: 1.01E+00 and 1.02E+00 and 9.51E-01
PfcProRS; SI Fig 16a, values on -log scale
  PfcProRS -- best Kd: 7.580
